Here are results for two substances from patent publication US7524981B2, “Phospholipid derivatives and process for the production there” (NOF Corporation, priority 2003, dated 2009).

This series in a line: Salt-tolerant effect: clouding point in aqueous sodium sulfate. Format: physicochemical. Particulars: 1 mass % solution in 5 mass % aqueous solution of sodium sulfate. As to the method: Clouding point of a 1 mass % solution of tetradecaglycerol succinyl distearoylphosphatidylethanolamine obtained in Example 5, which was dissolved in 5 mass % aqueous solution of sodium sulfate, was measured. As a result of the measurement, clouding point could not be detected even when the temperature was raised to 80° C.
Clouding point was measured for monomethylpolyoxyethylenecarbamyl (molecular weight: 2000) distearoylphosphatidylethanolamine obtained in Comparative Synthesis Example 1 in the same manner as used in Example 9.

On to “Monomethylpolyoxyethylenecarbamyl (Molecular Weight: 2000) Distearoylphosphatidylethanolamine”, for which the Clouding point turned out to be 50.0 °C. For the substance “Tetradecaglycerol Succinyl Distearoylphosphatidylethanolamine [DSPE-PG(40)]”, the Clouding point is greater than 80 °C.
